Reference: patent publication US8609862B2, “Use of an adrenal hormone-modifying agent” (Novartis AG, priority 2010, dated 2013)

Legend:
Rat CYP11B2 = target: T1, Rat CYP11B2 (Rattus norvegicus, UniProt P30099); assay: In vitro rat CYP11B2 assay; type: biochemical; conditions: V79-4 cell homogenate, 11-deoxycorticosterone to aldosterone, SPA
T1 construct: made in house; host or cells: V79-4 cell line #305 (stably selected with geneticin and hygromycin); sonicated homogenate, 500 x g supernatant
T1 sequence (P30099 35-510): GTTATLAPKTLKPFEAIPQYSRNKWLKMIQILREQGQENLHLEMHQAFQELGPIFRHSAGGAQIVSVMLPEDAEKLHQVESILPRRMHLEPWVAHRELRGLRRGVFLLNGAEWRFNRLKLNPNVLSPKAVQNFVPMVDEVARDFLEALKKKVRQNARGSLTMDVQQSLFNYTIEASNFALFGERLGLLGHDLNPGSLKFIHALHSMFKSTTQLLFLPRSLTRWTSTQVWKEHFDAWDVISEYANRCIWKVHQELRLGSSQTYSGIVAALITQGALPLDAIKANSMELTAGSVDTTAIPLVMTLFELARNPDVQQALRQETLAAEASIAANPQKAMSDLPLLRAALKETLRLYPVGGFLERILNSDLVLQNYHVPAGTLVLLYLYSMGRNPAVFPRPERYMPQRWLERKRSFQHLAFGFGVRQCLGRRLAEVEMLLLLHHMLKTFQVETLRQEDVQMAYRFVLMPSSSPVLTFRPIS
Method: Following 2 days of growth, cells are washed once with PBS, scraped and collected in PBS, and centrifuged at 1,300 rpm for 6 min. […] The sonication procedure is repeated 3 more times, with a 5 min incubation on ice between sonications. The sonicated material is then spun at 500×g for 4 min to remove unbroken cells. The supernatant is brought to a final glycerol concentration of 5%, flash-frozen in liquid nitrogen, and stored at −80° C.
The CYP11B2 assay is performed in 96-well U-bottom non-tissue-culture-treated plates. […] Plates are then centrifuged at 2,400 rpm for 6 min, and 100 μl of supernatant is removed for measurement of aldosterone content by scintillation proximity assay (SPA).
Measurement of aldosterone is performed using a 96-well plate format. […] Anti-mouse PVT SPA beads (50 μl) are then added to each well and incubated for 4 hr at room temperature prior to counting in a Microbeta plate counter. The amount of aldosterone in each sample is calculated by comparing with a standard curve generated using known quantities of the hormone.
Full concentration-response curves of an inhibitor are performed at least 3 times. The IC50 values are derived using a non-linear least squares curve-fitting program from DBS XLfit.

Human CYP11B2 = target: T2, Human CYP11B2 (Homo sapiens, UniProt P19099); assay: In vitro human CYP11B2 (aldesterone) assay in NCI-H295R cells; type: cell-based; conditions: 1 μM Ang II, 24 hr, aldosterone production by SPA
T2 construct: host or cells: NCI-H295R human adrenocortical carcinoma cells, stimulated with 1 uM Ang II
T2 sequence (P19099 25-503): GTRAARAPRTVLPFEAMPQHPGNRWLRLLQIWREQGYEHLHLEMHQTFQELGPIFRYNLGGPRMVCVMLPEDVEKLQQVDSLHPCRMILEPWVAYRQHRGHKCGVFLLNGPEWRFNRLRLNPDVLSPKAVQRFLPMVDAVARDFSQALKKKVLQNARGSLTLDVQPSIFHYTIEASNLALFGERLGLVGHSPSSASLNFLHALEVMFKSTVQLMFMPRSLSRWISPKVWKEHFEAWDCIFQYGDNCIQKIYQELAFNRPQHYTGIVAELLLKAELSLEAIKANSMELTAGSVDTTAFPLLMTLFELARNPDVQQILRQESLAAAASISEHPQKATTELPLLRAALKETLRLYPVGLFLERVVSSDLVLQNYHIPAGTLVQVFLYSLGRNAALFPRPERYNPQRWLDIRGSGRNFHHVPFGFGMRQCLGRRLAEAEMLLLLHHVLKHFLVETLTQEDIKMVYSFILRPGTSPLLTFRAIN
Excerpt: Human adrenocortical carcinoma NCI-H295R cell line was obtained from American Type Culture Collection (Manassas, Va.). […] Anti-mouse PVT scintillation proximity assay (SPA) beads and NBS 96-well plates were obtained from GE Health Sciences (Piscataway, N.J.) and Corning (Acton, Mass.), respectively. Solid black 96-well flat bottom plates were purchased from Costar (Corning, N.Y.). Aldosterone and angiotensin (Ang II) were purchased from Sigma (St. Louis, Mo.). D-[1,2,6,7-^3H(N)]aldosterone was acquired from PerkinElmer (Boston, Mass.). Nu-serum was a product of BD Biosciences (Franklin Lakes, N.J.).
Measurement of aldosterone activity can also be performed using a 96-well plate format. […] The amount of aldosterone in each sample is calculated by comparing with a standard curve generated using known quantities of the hormone.
Inhibition of the release of certain steroids can be used as a measure of the respective enzyme inhibition by the added test compounds. […] The inhibition plot is calculated by fitting a 4-parameter logistic function to the raw data points using the least squares method. The equation of the 4-parameter logistic function is calculated as follows: Y=(d−a)/((1+(x/c)b))+a, where: a=minimum data level, b=gradient, I […], d=maximum data level, x=inhibitor concentration.

Row | IC50 (Rat CYP11B2) [nM] | IC50 (Human CYP11B2) [nM] | Compound
1 | 1 | 1.2 | N#Cc1ccc(C2CCCCc3cncn32)c(Br)c1 (racemic) [3-bromo-4-(6,7,8,9-tetrahydro-5H-imidazo[1,5-a]azepin-5-yl)benzonitrile racemate, 3-bromo-4-(6,7,8,9-tetrahydro-5H-imidazo[1,5-a]azepin-5-yl)benzonitrile]
2 | 1 | 0.4 | N#Cc1ccc(C2CCCCc3cncn32)c(-c2ccc(F)cc2)c1 (single isomer, unassigned) [4′-fluoro-6-(6,7,8,9-tetrahydro-5H-imidazo[1,5-a]azepin-5-yl)biphenyl-3-carbonitrile]
3 | 5 | 2.7 | COc1ccc(CN(C)C(=O)C2(c3ccc(C#N)cc3Cl)CCc3cncn32)cc1 (stereo not drawn) [5-(2-chloro-4-cyanophenyl)-N-(4-methoxybenzyl)-N-methyl-6,7-dihydro-5H-pyrrolo[1,2-c]imidazole-5-carboxamide]
